From ChEMBL document CHEMBL1135041, “Synthesis and first biological evaluation of 1-aza-9-oxafluorenes as novel lead structures for the development of small-sized cytostatics” (2002)

Assays:
Assay type in all cases: functional
Conditions in all cases: Homo sapiens
[1] = test system: IGROV-1; experiment: Growth inhibition against IGROVI (ovarian cancer) cell line using SRB protein cytotoxicity assay
[2] = test system: KM12; experiment: Growth inhibition against KM12 (colon cancer) cancer cell line using SRB protein cytotoxicity assay
[3] = test system: NCI/ADR-RES; experiment: Growth inhibition against NCI/ADR-RES (breast cancer) cell line using SRB protein cytotoxicity assay
[4] = test system: SF-268; experiment: Growth inhibition against SF-268 cancer cell line using SRB protein cytotoxicity assay
[5] = test system: SNB-75; experiment: Growth inhibition against SNB-75 (CNS cancer) cell line using SRB protein cytotoxicity assay

Row | Compound | GI50 [1] [µM] | GI50 [2] [µM] | GI50 [3] [µM] | GI50 [4] [µM] | GI50 [5] [µM]
1 | CCOC(=O)c1cnc2oc3ccc(O)cc3c2c1-c1ccccc1 | 2.5 | 5.1 | 4.7 | 29.7 | 16.5
2 | CC(=O)c1cnc2oc3ccc(O)cc3c2c1-c1ccccc1 | 5 | 40.8 | 19.6 | 27.7 | 2.6
3 | CCOC(=O)c1cnc2oc3ccc(O)cc3c2c1C | 86 | 70.3 | 41 | 69.9 | 26
4 | CC(=O)c1cnc2oc3ccc(O)cc3c2c1C |  |  |  | > 100 | 
